Results from patent EP4818168A1, “FUSED RING COMPOUND, PHARMACEUTICAL COMPOSITION THEREOF AND USE THEREOF” (priority 2023, dated 2025).
Where two headings read alike, the source gives them in different places.

Legend:
[1] = molecular target: T1, AURKA (Homo sapiens, UniProt O14965); format: cell-based; conditions: Jurkat cells, 24 h, Table 2
T1 construct: endogenous in cells; host or cells: Jurkat cells
T1 sequence (O14965 1-403): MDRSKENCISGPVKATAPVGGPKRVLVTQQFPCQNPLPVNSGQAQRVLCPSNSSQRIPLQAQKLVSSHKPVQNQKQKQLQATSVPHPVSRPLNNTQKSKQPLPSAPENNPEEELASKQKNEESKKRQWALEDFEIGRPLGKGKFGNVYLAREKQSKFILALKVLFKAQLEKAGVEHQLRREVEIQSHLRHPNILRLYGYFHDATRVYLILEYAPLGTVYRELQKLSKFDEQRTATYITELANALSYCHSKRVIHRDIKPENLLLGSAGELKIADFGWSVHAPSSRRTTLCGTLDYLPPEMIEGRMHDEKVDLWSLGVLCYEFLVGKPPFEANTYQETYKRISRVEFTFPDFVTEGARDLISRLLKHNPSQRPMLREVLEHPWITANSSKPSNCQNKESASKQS
Description: WB is a classical biochemical experimental method used to detect the abundance of a target protein in a sample of cells or biological tissue. It relies on specific antigen-antibody binding to detect protein signals from the sample processed by gel electrophoresis: the protein specifically binds to a primary antibody at an epitope; the primary antibody is then conjugated with a secondary antibody to amplify the signal cascade; the signal is read out by chemiluminescent or fluorescent detection. The intracellular protein content is ultimately characterized by the intensity of the optical signals. […] The DC50 value can be calculated by curve fitting of the protein WB exposure signals.
The experimental procedure is as follows: • 1. Seed Jurkat cells into a 12-well plate at 1×10^6 cells/500 µL/well. • 2. Mix the culture medium with the compound to a concentration that is twice the desired final concentration. […] Transfer the cell suspension to a centrifuge tube. Rinse the 12-well plate with PBS and then transfer the PBS from the plate to the same centrifuge tube. Centrifuge at 3000 rpm for 5 min at room temperature. Aspirate the supernatant using a vacuum pump. […] Lyse on ice for 20 min. • 4. Centrifuge the lysed sample at 13000 rpm for 20 min at 4°C. Mix the supernatant with 5× protein loading buffer. Boil at 100°C for 5 min and then cool. Store the denatured protein sample at -20°C. • 5. […] Run electrophoresis at 80 V for 20 min, and then at 120 V constant voltage for 60 min. • 6. Transfer the protein onto a nitrocellulose membrane in an ice bath at 250 mA constant current for 90 min. • 7. […] Incubate with a primary antibody overnight at 4°C. • 9. […] Incubate with a secondary antibody for 1-2 h at room temperature. • 10. […] Expose and image the membrane using a LICOR Odyssey DLx imager.

[2] = system: H82 cells; assay: cells; format: cell-based; conditions: Homo sapiens
Method: CellTiter-Glo (CTG) is a rapid cell viability test method based on ATP detection. […] Adenosine triphosphate (ATP) participates in various enzymatic reactions in organisms and is an indicator of living cell metabolism. Its content directly reflects the number of living cells and cell status. During the experiment, equal volume of CTG reagent is added to the cultured cells to measure the luminescence value. The chemiluminescent signal value is proportional to the amount of ATP, thus reflecting the number of viable cells. Therefore, cell viability can be obtained by detecting the ATP content. Compounds that affect cell viability will inhibit cell viability in a concentration-dependent manner, allowing a curve to be fitted to obtain the IC50 value.
The experimental procedure is as follows: • 11. Place the cell suspension in a 15 mL centrifuge tube, centrifuge at 1000 rpm for 5 min at room temperature, discard the supernatant, and collect the cell pellet. • 12. Resuspend the cell pellet with preheated complete cell culture medium (RPMI1640+10%FBS+1%PS), and use a Countess® automated cell counter to detect cell viability and density. […] Transfer the compound solution to a 96-well plate seeded with cells (final concentration of DMSO 0.1%), and place in a cell incubator at 37°C, 5% CO2 for 6 days. • 15. […] Protect from light during the whole process. Perform optical signal readings using a SpectraMax i3x reader. • 16. Data analysis: Remaining activity (%) = 100% * (1 - ((LumDMSO - Lummedium) - Lumsample) / (LumDMSO - LumPBS/medium)). Use GraphPad Prism 9.0 software to draw an S-shaped dose-survival rate curve and calculate the IC50 value using a nonlinear regression model.

[3] = NCI-H82, H82 cells, 4000 cells/well, CellTiter-Glo, read-out: IC50 in H82 Cells

Row | SMILES | Percentage of AURKA Degradation Induced by 100 nM Compound in Jurkat Cells [1] | Percentage of AURKA Degradation Induced by 1 µM Compound in Jurkat Cells [1] | IC50 [2, 3] [µM] | IC50 ([2]; NCI-H82, read-out: IC50 in H82 Cells) [µM]
1 | O=C1CCN(c2ccc(N3CCN(CCC#Cc4cccc(Nc5ncc6c(n5)-c5ccc(Cl)cc5C(c5c(F)cccc5F)=NC6)c4)CC3)cc2)C(=O)N1 [Compound A97] | + (Degradation ≤ 30%) | + (Degradation ≤ 30%) | < 1 | 
2 | O=C1CCN(c2ccc(N3CCN(CC#Cc4cccc(Nc5ncc6c(n5)-c5ccc(Cl)cc5C(c5c(F)cccc5F)=NC6)c4)CC3)cc2)C(=O)N1 [Compound A99] | ++ (30% < Degradation ≤ 70%) | + (Degradation ≤ 30%) | < 1 | 
3 | O=C1CCN(c2cccc(N3CCN(CCC#Cc4cccc(Nc5ncc6c(n5)-c5ccc(Cl)cc5C(c5c(F)cccc5F)=NC6)c4)CC3)c2)C(=O)N1 [Compound A100] | ++ (30% < Degradation ≤ 70%) | ++ (30% < Degradation ≤ 70%) | < 1 | 
4 | O=C1CCN(c2ccc(N3CC(N4CCN(Cc5ccc(Nc6ncc7c(n6)-c6ccc(Cl)cc6C(c6c(F)cccc6F)=NC7)cc5)CC4)C3)nc2)C(=O)N1 [Compound A101] | +++ (Degradation > 70%) | +++ (Degradation > 70%) | < 1 | 
5 | O=C1CCN(c2ccc(N3CCN(CCCOc4cccc(Nc5ncc6c(n5)-c5ccc(Cl)cc5C(c5c(F)cccc5F)=NC6)c4)CC3)cc2)C(=O)N1 [Compound A102] | + (Degradation ≤ 30%) | + (Degradation ≤ 30%) | < 1 | 
6 | O=C1CCN(c2ccc(N3CCN(CCC(=O)Nc4ccc(Nc5ncc6c(n5)-c5ccc(Cl)cc5C(c5c(F)cccc5F)=NC6)cc4)CC3)cc2)C(=O)N1 [Compound A104] | +++ (Degradation > 70%) | +++ (Degradation > 70%) | < 1 | 
7 | Cn1c(CN2CCN(c3ccc(N4CCC(=O)NC4=O)cc3)CC2)cnc1-c1ccc(Nc2ncc3c(n2)-c2ccc(Cl)cc2C(c2c(F)cccc2F)=NC3)cc1 [Compound A106] | +++ (Degradation > 70%) | +++ (Degradation > 70%) | < 1 | 
8 | O=C1CCN(c2ccc(NCCN3CCn4c(cnc4-c4ccc(Nc5ncc6c(n5)-c5ccc(Cl)cc5C(c5c(F)cccc5F)=NC6)cc4)C3)cc2)C(=O)N1 [Compound A107] | ++ (30% < Degradation ≤ 70%) | ++ (30% < Degradation ≤ 70%) | < 1 | 
9 | O=C1CCN(c2ccc(N3CCC4(CC3)CC(NC(=O)c3ccc(Nc5ncc6c(n5)-c5ccc(F)cc5C(c5c(F)cccc5F)=NC6)cc3)C4)nc2)C(=O)N1 [Compound A109] | ++ (30% < Degradation ≤ 70%) | ++ (30% < Degradation ≤ 70%) | < 1 | 
10 | Cc1cc(N2CCC3(CC2)CC(NC(=O)c2ccc(Nc4ncc5c(n4)-c4ccc(Cl)cc4C(c4c(F)cccc4F)=NC5)cc2)C3)ncc1N1CCC(=O)NC1=O [Compound A110] | ++ (30% < Degradation ≤ 70%) | ++ (30% < Degradation ≤ 70%) | < 1 | 
11 | Cc1nc(N2CCC3(CC2)CC(NC(=O)c2ccc(Nc4ncc5c(n4)-c4ccc(Cl)cc4C(c4c(F)cccc4F)=NC5)cc2)C3)ccc1N1CCC(=O)NC1=O [Compound A112] | +++ (Degradation > 70%) | +++ (Degradation > 70%) | < 1 | 
12 | O=C1CCN(c2ccc(N3CCC4(CC3)CC(NC(=O)c3ccc(Nc5ncc6c(n5)-c5ccc(C7CC7)cc5C(c5c(F)cccc5F)=NC6)cc3)C4)nc2)C(=O)N1 [Compound A115] | +++ (Degradation > 70%) | +++ (Degradation > 70%) | < 1 | 
13 | O=C1CCN(c2ccc(N3CCC4(CC3)CC(NC(=O)c3ccc(Nc5ncc6c(n5)-c5ccccc5C(c5c(F)cccc5F)=NC6)cc3)C4)nc2)C(=O)N1 [Compound A116] | +++ (Degradation > 70%) | +++ (Degradation > 70%) | < 1 | 
14 | Cc1ccc2c(c1)C(c1c(F)cccc1F)=NCc1cnc(Nc3ccc(C(=O)NC4CC5(CCN(c6ccc(N7CCC(=O)NC7=O)cn6)CC5)C4)cc3)nc1-2 [Compound A118] | ++ (30% < Degradation ≤ 70%) | +++ (Degradation > 70%) | < 1 | 
15 | O=C1CCN(c2ccc(C3CN(C4CN(C(=O)c5ccc(Nc6ncc7c(n6)-c6ccc(Cl)cc6C(c6c(F)cccc6F)=NC7)cc5)C4)C3)nc2)C(=O)N1 [Compound A120] | + (Degradation ≤ 30%) | + (Degradation ≤ 30%) |  | < 1
16 | O=C1CCN(c2ccc(N3CCN(Cc4cnc(-c5ccc(Nc6ncc7c(n6)-c6ccc(Cl)cc6C(c6c(F)cccc6F)=NC7)cc5)[nH]4)CC3)cc2)C(=O)N1 [Compound A121] | +++ (Degradation > 70%) | ++ (30% < Degradation ≤ 70%) | < 1 | 
17 | COc1ccc2c(c1)C(c1c(F)cccc1F)=NCc1cnc(Nc3ccc(C(=O)NC4CC5(CCN(c6ccc(N7CCC(=O)NC7=O)cn6)CC5)C4)cc3)nc1-2 [Compound A122] | +++ (Degradation > 70%) | +++ (Degradation > 70%) | < 1 | 
18 | O=C1CCN(c2ccc(N3CCN(CC#Cc4ccc(Nc5ncc6c(n5)-c5ccc(Cl)cc5C(c5c(F)cccc5F)=NC6)cc4)CC3)cc2)C(=O)N1 [Compound A124] | + (Degradation ≤ 30%) | + (Degradation ≤ 30%) | < 1 | 
